# What was measured:
# Septoria tritici [1] = assay: G1. Preventative control of leaf blotch on wheat caused by Septoria tritici (Septtr P1), green house; type: in vivo; conditions: 300 pm active substance, % diseased leaf area, untreated control 90%
# Method: The spray solutions were prepared in several steps:
# The stock solution were prepared: a mixture of acetone and/or dimethylsulfoxide and the wetting agent/emulsifier Wettol, which is based on ethoxylated alkylphenoles, in a relation (volume) solvent-emulsifier of 99 to 1 was added to 25 mg of the compound to give a total of 5 ml. Water was then added to total volume of 100 ml.
# This stock solution was diluted with the described solvent-emulsifier-water mixture to the given concentration.
# G1. Preventative Control of Leaf Blotch on Wheat Caused by Septoria tritici (Septtr P1)
# Leaves of pot-grown wheat seedling were sprayed to run-off with an aqueous suspension of the active compound or their mixture, prepared as described. The plants were allowed to air-dry. The next day the plants were inoculated with an aqueous spore suspension of Septoria tritici. Then the trial plants were immediately transferred to a humid chamber at 18-22° C. and a relative humidity close to 100%. After 4 days the plants were transferred to a chamber with 18-22° C. and a relative humidity close to 70%. After 4 weeks the extent of fungal attack on the leaves was visually assessed as % diseased leaf area.
# Botritis cinerea = assay: G4. Preventative fungicidal control of Botritis cinerea on leaves of green pepper (Botrci P1), green house; type: in vivo; conditions: 300 pm active substance, % diseased leaf area, untreated control 90%
# Method: 1) Green House The spray solutions were prepared in several steps: The stock solution were prepared: a mixture of acetone and/or dimethylsulfoxide and the wetting agent/emulsifier Wettol, which is based on ethoxylated alkylphenoles, in a relation (volume) solvent-emulsifier of 99 to 1 was added to 25 mg of the compound to give a total of 5 ml. Water was then added to total volume of 100 ml. This stock solution was diluted with the described solvent-emulsifier-water mixture to the given concentration. G4. Preventative fungicidal control of Botritis cinerea on leaves of green pepper (Botrci P1 Young seedlings of green pepper were grown in pots to the 4 to 5 leaf stage. These plants were sprayed to run-off with an aqueous suspension, containing the concentration of active ingredient or their mixture mentioned in the table below. The next day the plants were inoculated with a aqueous biomalt solution containing the spore suspension of Botritis cinerea. Then the plants were immediately transferred to a humid chamber. After 5 days at 22 to 24° C. and a relative humidity close to 100% the extent of fungal attack on the leaves was visually assessed as % diseased leaf area.
# Septoria tritici [2] = assay: M1. Microtest: activity against leaf blotch on wheat caused by Septoria tritici (Septtr), micro titer plate growth; type: cell-based; conditions: 405 nm, 7 days after inoculation, relative growth vs active compound-free control (100%)
# Method: Microtest The active compounds were formulated separately as a stock solution having a concentration of 10000 ppm in dimethyl sulfoxide. M1. Activity Against Leaf Blotch on Wheat Caused by Septoria tritici (Septtr) The stock solutions were mixed according to the ratio, pipetted onto a micro titer plate (MTP) and diluted with water to the stated concentrations. A spore suspension of Septoria tritici in an aqueous biomalt or yeast-bactopeptone-glycerine solution was then added. The plates were placed in a water vapor-saturated chamber at a temperature of 18° C. Using an absorption photometer, the MTPs were measured at 405 nm 7 days after the inoculation. The measured parameters were compared to the growth of the active compound-free control variant (100%) and the fungus-free and active compound-free blank value to determine the relative growth in % of the pathogens in the respective active compounds
SMILES,Disease (%) at 300 pm Septtr P1 (Septoria tritici [1]) [%],Disease (%) at 300 pm Botrci P1 (Botritis cinerea) [%],Growth (%) at 0.002 ppm Septtr (Septoria tritici [2]) [%]
C=CCOC(Cn1cncn1)c1ccc(Oc2ccc(Cl)cc2)cc1Cl (stereo not drawn),30,30,–
COC(Cn1cncn1)c1ccc(Oc2ccc(Cl)cc2)cc1Cl (stereo not drawn),40,–,72
C#CC(Cn1cncn1)(OC)c1ccc(Oc2ccc(Cl)cc2)cc1Cl (stereo not drawn) [I-1],–,–,14
"C=CC(Cn1cncn1)(OC)c1ccc(Oc2ccc(Cl)cc2)cc1Cl (stereo not drawn) [I-7, 1-[2-[2-chloro-4-(4-chlorophenoxy)phenyl]-2-methoxy-but-3-enyl]-1,2,4-triazole]",0,–,–
C=CCOC(C=C)(Cn1cncn1)c1ccc(Oc2ccc(Cl)cc2)cc1Cl (stereo not drawn) [I-8],0,–,–
C=CCOC(C#CC)(Cn1cncn1)c1ccc(Oc2ccc(Cl)cc2)cc1Cl (stereo not drawn) [I-12],0,0,–
